pIC50: −log10 of the molar value.

One assay addresses T1, hERG channel (Homo sapiens, UniProt Q12809).
T1 construct: host or cells: HEK293
As to the kind of experiment: Patch clamp assay on HEK293-hERG cells. In kind it is cell-based. The procedure: An in vitro time-resolved fluorescence (TRF)-based binding assay for MCHR1 was performed to identify the MCHR1 antagonist from the 19 predicted compounds selected through in silico screening. […] In addition, a patch clamp assay was performed to measure the cardiotoxicity of the five compounds. […] Consequently, of the five compounds, only KRX-104130 and KRX-104165 overcame cardiotoxicity.
Patch clamp assays were performed on HEK293 cells stably expressing the hERG channel (HEK293-hERG cells; Genionics, Switzerland). When the cells were more than 80% confluent, they were freshly dislodged from flasks with 0.05% trypsin–EDTA for 1–2 min, spun down twice at 700× g, suspended into the extracellular solution (in mmol/L at 1.8 × 10^6 per mL: 137 NaCl, 4 KCl, 1 MgCl2, 1.8 CaCl2, 10 HEPES, and 10 glucose, pH 7.4, adjusted with NaOH), and dispensed into a patch clamp plate. The cell density was adjusted to 2–3 × 10^5 cells/mL. After dispensing, the cells were applied to the AutoPatch system (PatchXpress 7000A, Molecular Devices, Sunnyvale, CA, USA). The hERG currents were evoked by two voltage pulses at 3 s interval. The voltage pulse consisted of a 100-ms step to −30 mV, a conditioning prepulse (2 s duration, +25 mV or +45 mV), followed by a test pulse (2 s duration, −30 mV) from a holding potential of −70 mV. After a 3 s interval at −70 mV, a second pulse protocol was applied, consisting of a 100-ms step to −30 mV, a prepulse (2 s duration, +45 mV), followed by a test pulse (2 s duration, −30 mV). Leak currents were linearly subtracted, extrapolating the current elicited by a 100-ms step to −80 mV from a holding potential of −70 mV. The experiment was initiated with a buffer control in the absence of the drug to calculate the IC50. The test compound was applied at low to high concentrations, and the tail current was monitored continuously. The compound effects were tested using six concentrations in three-fold dilutions from 1 to 300 µM.
(In general: The patch-clamp technique gives a direct electrical read-out from membranes.)

In another assay the test system is LDLR. In words: RT-qPCR analysis of LDLR mRNA expression in HepG2 cells. In kind it is cell-based, human. To be noted: HepG2 cells, 3, 10 and 30 μM, 24 h. The procedure: To validate that KRX-104130 increased the LDLR gene expression through the DEG analysis, LDLR mRNA expression was investigated in KRX-104130–treated HepG2 cells.
The mRNA expression levels of LDLR in the HepG2 cells were determined by real-time quantitative PCR (RT-qPCR) at the Cosmo Genetech (Sungsoo, Seoul, Korea). The total RNA was extracted from the cultured cells using an RNeasy mini kit (Qiagen, Valencia, CA, USA), and gene expression was analyzed by RT-qPCR using a Bio-Rad CFX96 system (Hercules, CA, USA). The mRNA expression levels were investigated three times in each sample treated with 0 μM, 3 μM, 10 μM, and 30 μM KRX-104130 for 24 h, and each result was obtained from three independent experiments, for 12 samples. For LDLR, the forward primer was 5′-CTCCCGCCAAGATCAAGAAA-3′, and the reverse primer was 5′-GAGATCTAGGGTGATGCCATTG-3′. The housekeeping gene, glyceraldehyde 3-phosphate dehydrogenase (GAPDH), was used as an internal control. The forward primer was 5′-TTGCCATCAATGACCCCTTCA-3′, and the reverse primer was 5′-CGC CCC ACT TGA TTT TGG A-3′. The PCR conditions for all genes were 40 cycles of pre-denaturation at 95 °C for 3 min, amplification at 62 °C for 30 s, and 95 °C for 10 s. The qPCR was performed using CFX manager (Version 3.1).
In general terms: Quantitative PCR measures a nucleic acid by following its amplification.

T1 sequence (Q12809 whole entry): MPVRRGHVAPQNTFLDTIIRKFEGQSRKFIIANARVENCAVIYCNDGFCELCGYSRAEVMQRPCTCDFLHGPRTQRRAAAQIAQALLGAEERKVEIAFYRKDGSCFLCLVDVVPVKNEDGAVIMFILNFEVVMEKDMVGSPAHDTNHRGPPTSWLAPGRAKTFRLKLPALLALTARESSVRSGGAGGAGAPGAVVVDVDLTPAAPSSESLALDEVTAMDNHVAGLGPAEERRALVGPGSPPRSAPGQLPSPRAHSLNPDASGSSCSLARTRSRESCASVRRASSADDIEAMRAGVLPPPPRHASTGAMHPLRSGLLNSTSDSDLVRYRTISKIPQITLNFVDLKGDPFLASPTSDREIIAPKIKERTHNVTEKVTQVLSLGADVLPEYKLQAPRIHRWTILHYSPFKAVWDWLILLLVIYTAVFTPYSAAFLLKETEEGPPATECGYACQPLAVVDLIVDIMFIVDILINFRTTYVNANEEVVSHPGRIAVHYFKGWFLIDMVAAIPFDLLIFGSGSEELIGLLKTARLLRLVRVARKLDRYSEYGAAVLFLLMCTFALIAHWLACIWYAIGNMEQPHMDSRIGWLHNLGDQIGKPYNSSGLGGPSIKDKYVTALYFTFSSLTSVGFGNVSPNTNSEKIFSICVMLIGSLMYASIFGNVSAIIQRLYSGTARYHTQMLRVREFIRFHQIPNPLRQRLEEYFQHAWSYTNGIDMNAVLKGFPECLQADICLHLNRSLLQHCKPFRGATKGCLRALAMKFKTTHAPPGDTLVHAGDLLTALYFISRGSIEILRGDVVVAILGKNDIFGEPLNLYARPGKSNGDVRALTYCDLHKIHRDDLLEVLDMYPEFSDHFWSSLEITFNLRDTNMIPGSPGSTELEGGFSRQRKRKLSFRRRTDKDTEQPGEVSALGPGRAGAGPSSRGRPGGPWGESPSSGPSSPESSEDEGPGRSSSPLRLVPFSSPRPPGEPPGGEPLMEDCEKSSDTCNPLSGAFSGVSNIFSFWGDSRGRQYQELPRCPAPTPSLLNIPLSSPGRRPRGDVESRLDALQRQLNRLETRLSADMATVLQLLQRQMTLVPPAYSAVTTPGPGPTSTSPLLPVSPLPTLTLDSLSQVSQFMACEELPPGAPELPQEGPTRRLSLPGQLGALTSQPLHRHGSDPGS

`COc1nc2cc(F)c(F)cc2nc1NC(=O)NC1CCN(Cc2cc3ccccc3[nH]2)CC1` [KRX-104130] had a pIC50 against hERG channel of 4.89. In addition, the “LDLR mRNA expression level” value with LDLR is given as “LDLR upregulation in a concentration-dependent manner”.

As usually defined, the pIC50 is −log10 of the IC50, conventionally taken in molar units. The low end stands for a high IC50, the high end for a low IC50.

Source of the values: paper PMC8998904, “Identification and New Indication of Melanin-Concentrating Hormone Receptor 1 (MCHR1) Antagonist Derived from Machine Learning and Transcriptome-Based Drug Repositioning Approaches” (International Journal of Molecular Sciences, 2022).
